Measurements published in patent US20130150399A1, “INHIBITORS OF THE UNFOLDED PROTEIN RESPONSE AND METHODS FOR THEIR USE” (The Board of Trustees of the Leland Stanford Junior …, priority 2006, published 2013).
Where “and” joins values, the source holds several entries; their conditions need not be identical. Equal entries are not always repeated.

Tests used:
[1] = test system: XBP1-luciferase reporter; experiment: XBP-luciferase reporter high throughput screen / IRE IC50 (tunicamycin + thapsigargin induced); type: cell-based, human
Method: Specifically, HT1080 fibrosarcoma cells stably transfected with the unspliced XBP-1-luciferase reporter construct (3000/well) were plated onto a solid white 384 well microplate with a multidrop dispenser (40 μL per well). The plates were then placed into an automated incubator. After 24 hours of growth, a mixture of tunicamycin (1 μg/ml) and thapsigargin (100 nM) inducers were added, and candidate compounds were then added to the plates. After 24 hours, luciferase reagent (10 μl) was added to each well and the plates were read in a Molecular Devices Analyst GT (0.2 second read per well).
As described above in Example 2, HT1080 fibrosarcoma cells stably expressing the XBP-luciferase reporter were plated in a 384 well microplate (4000 cells/well). After 24 hours, cells were treated with a mixture of tunicamycin (4 μg/ml) and thapsigargin (0.4 μM), followed by the addition of one compound per well (10 μM). We screened a total of 66,000 diverse molecules obtained from Specs, Chembridge and ChemRX. Twenty-four hours post-induction, BriteGlo luciferase substrate (10 μl) was added to each well and the signal intensity determined in a plate reader (0.2 s read per well). […] We retested 431 compounds from the initial screen, and selected 58 compounds for additional analysis, including calculation of IC50 values and inhibition of a CMV-luciferase reporter.
Compounds of the screening library with structural similarity to compound 9389 (see Table 1) have been identified and in some cases further assayed for inhibitory activity. Compounds listed with “IC50” values were assayed secondarily after initially being identified in the high throughput screen. Each value represents a separate calculation of reporter inhibition based upon the high throughput robotic screening platform. The actual IC50 values are calculated and represent an estimate of the potency of each compound. This assay is not considered to be accurate below a concentration of 10 nM. Compounds classified with “mild” activity inhibited the XBP1-luciferase reporter by 10-30%. Compounds classified with “moderate” activity inhibited the XBP1-luciferase reporter by 30-75%. Compounds classified with “potent” activity inhibited the XBP1-luciferase reporter by 75-100%. Compounds classified with “undetected” activity inhibited the XBP1-luciferase reporter by less than 10% under the defined conditions.

[2] = test system: PANC1 pancreatic adenocarcinoma cells; experiment: PANC1 tumor growth in vivo; set-up: species or system nude mice; conditions: 60 mg/kg ip bolus every 48 hours, 5 doses
Method: Dose: 60 mg/kg ip bolus injection every 48 hours. 5 total doses. 5-7 tumors per group. PANC1 pancreatic adenocarcinoma cell line.
PANC1 pancreatic adenocarcinoma cells were implanted subcutaneously into nude mice. Mice were then given a bolus injection of one of the inventive irestatins (1401, 9337, 3611 or 9389) at a dose of 60 mg/kg every 48 hours for a total of 5 doses, with 5-7 tumors being treated per group.

[3] = test system: XBP-1 splicing; experiment: Bioluminescence imaging of XBP-1 splicing in HT1080 XBP-1s-luciferase tumors; type: in vivo; conditions: for toxicity: nude mice
Method: Several nude mice were implanted with HT1080 cells stably expressing a XBP-1s-luciferase construct and XBP-1 activation was examined using bioluminescence imaging. Imaging was performed using the In Vivo Imaging System (IVIS, Xenogen Corporation, Alameda, Calif.) in the Stanford Center for Innovation in In Vivo Imaging (SCI3). This device consists of a cooled CCD camera mounted on a light-tight specimen chamber.

[4] = test system: Grp78; experiment: Western immunoblot of Grp78, HT1080 cells; type: cell-based, human; conditions: Tm (5 μg/ml) for 8 hours, positive control
Method: Cells (2×10^6) were cultured in 10-cm dishes, collected using a cell scraper at 4° C., and lysed by addition of 150 μl cell lysis buffer [50 mM Tris pH 7.4, 150 mM NaCl, 10% glycerol, 0.5% Triton X-100. 0.5% NP-40, 2 mM Na3VO4, 20 mM beta-glycerophosphate, 10 mM NaF, 1 mM DTT, 1 mM PMSF). Lysates were centrifuged for 5 min at 10,000×g, and proteins (˜40 μg) were resolved by SDS-PAGE followed by semi-dry transfer to nitrocellulose membranes. Membranes were blocked in TBS-5% milk supplemented with 0.1% Tween-20. The blots were then probed overnight with relevant antibodies, washed, and incubated for 2 hours with species-specific secondary antibodies conjugated to horseradish peroxidase. After washing in block solution, immunoreactive material was detected by enhanced chemiluminescence (SuperSignal West Dura Extended, Pierce, Inc., Rockville, Ill.).
HT1080 cells were exposed to DMSO vehicle (lane 1), irestatin 9389 (2.5 μM; lane 2) for 16 hours or Tm (5 μg/ml; lane 3) for 8 hours. Following treatments, cells were harvested, lysed, and analyzed by immunoblotting using anti-Grp78 antibody (top) or anti-actin (bottom) as a loading control. […] Cell lysates were analyzed by Western immunoblotting using anti-IRE1α (bottom) or anti-phospho-IRE1α antibodies (top). […] Lysates were analyzed by Western blot using antisera specific for phospho-JNK1 (top) or total JNK1 (bottom). […]

[5] = test system: XBP-luciferase reporter; experiment: XBP-luciferase reporter assay under Tm or hypoxia, HT1080 cells; type: cell-based, human; conditions: Tm alone, 24 hours
Method: (§1) HT1080 cells stably expressing the XBP-luciferase construct were grown in 60 mm dishes to 60-70% confluency. Following hypoxia treatment, cells were washed twice with PBS, lysed in 400 μl 1× reporter lysis buffer (RLB) (Promega, Madison Wis.) for 30 min at 24° C. Lysates (100 μl) were mixed with an equal volume of luciferase substrate (Promega), and assayed using a luminometer. For 5×-UPRE-luciferase reporter assays, cells were co-transfected with the appropriate reporter plasmid and a control plasmid (pSV40-beta-gal) using Lipofectamine 2000 (Invitrogen, San Diego, Calif.). Twenty-four hours after transfection, fresh media was added, and cells were treated with Tm or shifted to hypoxia. After treatment, cells were lysed in 1×RLB and analyzed for luciferase activity as described above. Beta-galactosidase activity was determined using the beta-galactosidase enzyme assay system (Promega).
A. XBP-luciferase reporter construct. Firefly luciferase was inserted downstream of the IRE1α splice site in human XBP-1 to enable the conditional translation of luciferase under ER stress in an IRE1α-dependent manner. B. Selective inhibition of the XBP-luciferase reporter by irestatin 9389. HT1080 human fibrosarcoma cells stably expressing the XBP-luciferase reporter or CMV-luciferase were cultured in the presence of Tm (4 μg/ml) and Tg (0.4 μM) and irestatin 9389 at the indicated concentrations. After 24 hours, luciferase activity was analyzed in an automated plate reader. For each cell line, values are expressed as the percent inhibition of the median for Tm/Tg-treated wells, corrected for background. C. Structure of irestatin 9389. D. XBP-luciferase reporter assay. HT1080 cells stably expressing the XBP-luciferase reporter were exposed to Tm (4 μg/ml) for 24 hours or hypoxia (0.1% oxygen) for 24 or 48 hours, in the presence of DMSO or irestatin 9389 (1 μM) as indicated. Values are expressed as the fold increases over uninduced levels. E. 5×-UPRE reporter assay. HT1080 cells were co-transfected with 5×-UPRE luciferase and SV40-beta-gal reporter plasmids, followed by exposure to Tm or hypoxia as in D. For each condition, luciferase activity is normalized to beta-galactosidase expression levels as an internal control for transfection efficiency. F. Western immunoblot analysis of XBP-1s. HT1080 cells were left untreated (lane 2) or exposed to Tm (4 μg/ml) for 20 hours in the presence of DMSO vehicle (lane 1) or the indicated irestatins (2 μM; lanes 3-6). […] Cells were harvested, lysed, and analyzed by immunoblotting with antisera specific for HIF-1α (top), XBP-1s (middle) or actin (bottom). […] Total RNA was analyzed by Northern blotting using radiolabeled probes specific for P58^IPK or DER-1. […]

[6] = test system: 5×-UPRE luciferase reporter (XBP-1s); experiment: 5×-UPRE luciferase reporter assay, HT1080 cells; type: cell-based, human; conditions: Tm alone
Method: as §1
A. XBP-luciferase reporter construct. Firefly luciferase was inserted downstream of the IRE1α splice site in human XBP-1 to enable the conditional translation of luciferase under ER stress in an IRE1α-dependent manner. B. Selective inhibition of the XBP-luciferase reporter by irestatin 9389. HT1080 human fibrosarcoma cells stably expressing the XBP-luciferase reporter or CMV-luciferase were cultured in the presence of Tm (4 μg/ml) and Tg (0.4 μM) and irestatin 9389 at the indicated concentrations. After 24 hours, luciferase activity was analyzed in an automated plate reader. For each cell line, values are expressed as the percent inhibition of the median for Tm/Tg-treated wells, corrected for background. C. Structure of irestatin 9389. […] Values are expressed as the fold increases over uninduced levels. […] Cells were harvested, lysed, and analyzed by immunoblotting with antisera specific for HIF-1α (top), XBP-1s (middle) or actin (bottom). […] Total RNA was analyzed by Northern blotting using radiolabeled probes specific for P58^IPK or DER-1. […]
Since these assays employed a chimeric XBP-luciferase substrate, we next determined whether irestatin 9389 could inhibit the function of endogenous XBP-1s. […]

N#Cc1cccc(NC(=O)c2sc3nc4c(c(C(F)(F)F)c3c2N)CCC4)c1 [Compound 8878]
% Inh ([1]; Assay IRE IC50, Conc 20 uM): 72.4% and 50.0%

Cc1cn2cc(-c3ccc4ccccc4c3)nc2s1 [Compound 9337]
tumor growth [2]: significant tumor growth was observed in untreated mice, but not in mice treated with the irestatins

Nc1ccc(-c2ccc(-c3ccc(N)cc3)c(N)c2)cc1 [Compound 3281]
toxicity ([3]; 50 mg/kg IP): no apparent toxicity
XBP-1 splicing activity (bioluminescence) ([3]; 50 mg/kg IP, 8 hrs after injection): undetectable
XBP-1 splicing (bioluminescence) ([3]; 8 hrs after a second injection): again inhibited

Cc1cccc(NC(=O)c2sc3nc(C)cc(C(F)(F)F)c3c2N)n1 [Compound 2750]
% Inh ([1]; Assay HTS, Conc 10 uM): 16.6%

tunicamycin [Tm, reference compound]
Grp78 levels [4]: robustly induced Grp78
increase of XBP-luciferase activity [5]: 60 fold
increase of 5×-UPRE luciferase activity over untreated cells [6]: ~12 fold

CN1CCN(c2ccc3sc4ccccc4c(=O)c3c2)CC1 [Compound 1401]
tumor growth [2]: significant tumor growth was observed in untreated mice, but not in mice treated with the irestatins

Cc1cc2nc(NC(=O)CCCC(=O)O)sc2cc1C [Compound 3611]
tumor growth [2]: significant tumor growth was observed in untreated mice, but not in mice treated with the irestatins

Cc1csc(NC(=O)c2sc3nc4c(c(C(F)(F)F)c3c2N)CCC4)n1 [Compound 5500]
% Inh ([1]; Assay IRE IC50, Conc 20 uM): 104.4%
toxicity ([3]; 50 mg/kg IP): no apparent toxicity
effect on XBP-1 splicing (bioluminescence) ([3]; 50 mg/kg IP, at the time points assayed): did not have any affect on XBP-1 splicing

Cc1csc(NC(=O)c2sc3nc4c(c(C(F)(F)F)c3c2N)CCCC4)n1 [Compound 4335]
% Inh ([1]; Assay IRE IC50, Conc 20 uM): 70.4%
